Reference: PMC7588595, “Small-molecule active pharmaceutical ingredients of approved cancer therapeutics inhibit human aspartate/asparagine-β-hydroxylase” (Bioorganic & Medicinal Chemistry, 2020)
Counter-ions that a name gives are not always drawn. Like-named read-outs stand apart in the source and are kept apart here.

Biological target: T1, human AspH (His6-AspH315–758) (Homo sapiens, UniProt Q12797)
T1 construct: N-Terminally His6-tagged human AspH315–758 (His6-AspH315–758) was produced in Escherichia coli BL21 (DE3) cells; made in house; host or cells: Escherichia coli BL21 (DE3), pET-28a(+) vector
T1 sequence (Q12797 315-758): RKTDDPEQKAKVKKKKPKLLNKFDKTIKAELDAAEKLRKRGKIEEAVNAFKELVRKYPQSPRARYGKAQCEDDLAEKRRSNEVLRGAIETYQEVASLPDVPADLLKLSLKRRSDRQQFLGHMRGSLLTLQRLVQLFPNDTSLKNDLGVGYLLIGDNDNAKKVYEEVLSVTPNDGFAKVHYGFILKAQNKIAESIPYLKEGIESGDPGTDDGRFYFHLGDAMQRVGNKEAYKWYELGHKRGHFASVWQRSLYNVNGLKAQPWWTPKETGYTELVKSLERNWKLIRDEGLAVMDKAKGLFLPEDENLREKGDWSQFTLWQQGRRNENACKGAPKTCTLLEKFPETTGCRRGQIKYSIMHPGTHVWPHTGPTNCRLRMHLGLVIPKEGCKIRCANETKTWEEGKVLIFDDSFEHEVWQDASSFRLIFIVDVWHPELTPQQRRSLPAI
Assay: SPE-MS AspH inhibition assay (hFX-CP101-119 substrate hydroxylation)
Type: biochemical
Conditions: for Plate 1 (% inhibition): 384-well Plate 1

[1] = AspH-inhibitor screening, 384-well Plate 1, substrate conversion
[2] = AspH-inhibitor screening, Plate 1-duplicate
[3] = AspH-inhibitor screening, Plate 1-duplicate, substrate conversion

| SMILES | Plate 1 (% inhibition) (AspH-inhibitor screening) [%] | Plate 1 (% conversion) [1] [%] | Plate 1-duplicate (% inhibition) [2] [%] | Plate 1-duplicate (% conversion) [3] [%] | Plate 1 (% conversion) [%] | Plate 1-duplicate (% conversion) [%] |
| --- | --- | --- | --- | --- | --- | --- |
| Nc1cccc2c1C(=O)N(C1CCC(=O)NC1=O)C2=O (stereo not shown) [Pomalidomide] | 0.86 | 49.35 | 1.01 | 51.54 | – | – |
| C[C@]12C=CC(=O)C=C1CC[C@@H]1[C@@H]2[C@@H](O)C[C@@]2(C)[C@H]1CC[C@]2(O)C(=O)CO [Prednisolone] | 19.12 | – | 12.03 | – | 40.92 | 46.08 |
| COCC1(CO)C(=O)C2CCN1CC2 (stereo not shown) [Prima-1 Met] | 3.70 | 48.04 | 3.39 | 50.36 | – | – |
| COc1cc(Nc2ncc(F)c(Nc3ccc4c(n3)NC(=O)C(C)(C)O4)n2)cc(OC)c1OC [R406_Tamatinib] | 11.05 | 44.65 | 0.72 | 51.68 | – | – |
| Cn1c(Nc2ccc(C(F)(F)F)cc2)nc2cc(Oc3ccnc(-c4ncc(C(F)(F)F)[nH]4)c3)ccc21 [RAF265] | 38.69 | 31.88 | 34.01 | 35.17 | – | – |
| CNC(=O)c1ccc(N2C(=S)N(c3ccc(C#N)c(C(F)(F)F)c3)C(=O)C23CCC3)cc1F [RD162] | -1.12 | 50.27 | -2.20 | 53.13 | – | – |
| COc1cc(F)c(F)c(Nc2ccc(I)cc2F)c1NS(=O)(=O)C1(C[C@H](O)CO)CC1 [RDEA119_Refametinib] | 2.93 | 48.40 | 4.05 | 50.03 | – | – |
| O=C(c1ccc(OCCN2CCCCC2)cc1)c1c(-c2ccc(O)cc2)sc2cc(O)ccc12 [Raloxifene] | 17.35 | 41.74 | 14.45 | 44.88 | – | – |
| CS(=O)(=O)c1ccc(C2=C(c3ccccc3)C(=O)OC2)cc1 [Rofecoxib (Vioxx)] | 0.07 | 49.72 | 2.99 | 50.56 | – | – |
| C/C=C1\NC(=O)[C@H]2CSSCC/C=C/[C@H](CC(=O)N[C@H](C(C)C)C(=O)N2)OC(=O)[C@H](C(C)C)NC1=O [Romidepsin] | 31.77 | 35.08 | 29.51 | 37.41 | – | – |
| CC[C@H](CO)Nc1nc(NCc2ccccc2)c2ncn(C(C)C)c2n1 [Roscovitine_Selicilib] | – | – | – | – | 48.67 | 50.17 |
| CC(C)n1cnc2c(NCCc3ccc(O)cc3)nc(-c3csc4ccccc34)nc21.Cl [SR1 HCl] | 33.05 | 34.49 | 43.66 | 30.39 | – | – |
| CNC(=O)c1cc(Oc2ccc(NC(=O)Nc3ccc(Cl)c(C(F)(F)F)c3)cc2)ccn1 [Sorafenib] | 50.93 | 26.23 | 41.45 | 31.48 | – | – |
| CN1CCN(c2nc(C3=C(c4c[nH]c5ccccc45)C(=O)NC3=O)c3ccccc3n2)CC1 [Sotrastaurin] | 20.56 | 40.26 | 11.48 | 46.35 | – | – |
| O=[N+]([O-])c1ccc2c(c1)S(=O)(=O)C=C2 [Stattic] | 9.52 | 45.35 | 9.59 | 47.29 | – | – |
| Cn1c(=O)c(F)c(Nc2ccc(I)cc2F)c2c(=O)n(C[C@@H](O)CO)cnc21 [TAK-733] | -22.47 | 60.13 | -22.24 | 63.07 | – | – |
| Cc1cc(C(C)Nc2ccccc2)c2nc(N3CCOCC3)cc(=O)n2c1 (stereo not shown) [TGX-221] | -1.55 | 50.47 | 0.18 | 51.95 | – | – |
| CC/C(=C(\c1ccccc1)c1ccc(OCCN(C)C)cc1)c1ccccc1 [Tamoxifen citrate] | 67.86 | 18.41 | 59.34 | 22.61 | – | – |
| COc1cc2c(N3CCN(C(=O)Nc4ccc(OC(C)C)cc4)CC3)ncnc2cc1OCCCN1CCCCC1 [Tandutinib] | -11.71 | 55.16 | -8.54 | 56.28 | – | – |
| Cn1nnc2c(C(N)=O)ncn2c1=O [Temozolomide] | 5.12 | 47.38 | 8.46 | 47.85 | – | – |

Now from value to molecule, other results behind:

| Plate 1 (% inhibition) (AspH-inhibitor screening) [%] | Plate 1 (% conversion) [1] [%] | Plate 1-duplicate (% inhibition) [2] [%] | Plate 1-duplicate (% conversion) [3] [%] | SMILES | Plate 1 (% conversion) [%] | Plate 1-duplicate (% conversion) [%] |
| --- | --- | --- | --- | --- | --- | --- |
| 13.78 | 43.39 | 14.13 | 45.03 | C#CCC(Cc1cnc2nc(N)nc(N)c2n1)c1ccc(C(=O)N[C@@H](CCC(=O)O)C(=O)O)cc1 (stereo partly shown) [Pralatrexate] | – | – |
| 12.19 | 44.12 | 8.98 | 47.59 | CC[C@H](C)C(=O)O[C@H]1C[C@H](O)C=C2C=C[C@H](C)[C@H](CC[C@@H](O)C[C@@H](O)CC(=O)O)[C@H]21 [Pravastatin] | – | – |
| -2.32 | 50.82 | 2.01 | 51.04 | C[C@]12C=CC(=O)C=C1CC[C@@H]1[C@@H]2C(=O)C[C@@]2(C)[C@H]1CC[C@]2(O)C(=O)CO [Prednisone] | – | – |
| 0.24 | 49.64 | 5.52 | 49.30 | CNNCc1ccc(C(=O)NC(C)C)cc1 [Procarbazine hydrochloride] | – | – |
| 11.37 | 44.50 | 8.52 | 47.81 | CCN(CC)CCCC(C)Nc1c2ccc(Cl)cc2nc2ccc(OC)cc12 (stereo not shown) [Quinacrine HCl] | – | – |
| -16.43 | 57.34 | -26.38 | 65.13 | CO[C@H]1C[C@@H]2CC[C@@H](C)[C@@](O)(O2)C(=O)C(=O)N2CCCC[C@H]2C(=O)O[C@H]([C@H](C)C[C@@H]2CC[C@@H](O)[C@H](OC)C2)CC(=O)[C@H](C)/C=C(\C)[C@@H](O)[C@@H](OC)C(=O)[C@H](C)C[C@H](C)/C=C/C=C/C=C/1C [Rapamycin (sirolimus)] | – | – |
| 16.02 | 42.35 | 8.84 | 47.66 | CO[C@H]1C[C@@H]2CC[C@@H](C)[C@@](O)(O2)C(=O)C(=O)N2CCCC[C@H]2C(=O)O[C@H]([C@H](C)C[C@@H]2CC[C@@H](OP(C)(C)=O)[C@H](OC)C2)CC(=O)[C@H](C)/C=C(\C)[C@@H](O)[C@@H](OC)C(=O)[C@H](C)C[C@H](C)/C=C/C=C/C=C/1C [Ridaforolimus] | – | – |
| -12.94 | 55.72 | -30.32 | 67.08 | Cc1ccc(C(=O)N(CCCN)[C@@H](c2oc3cc(Cl)ccc3c(=O)c2Cc2ccccc2)C(C)C)cc1 [SB 743921] | – | – |
| -15.63 | 56.97 | -16.09 | 60.02 | CCC(C)(C)C(=O)O[C@H]1C[C@@H](C)C=C2C=C[C@H](C)[C@H](CC[C@@H]3C[C@@H](O)CC(=O)O3)[C@H]21 [Simvastatin] | – | – |
| 6.30 | 46.84 | 4.95 | 49.58 | CN(N=O)C(=O)N[C@@H](C=O)[C@@H](O)[C@H](O)[C@H](O)CO [Streptozocin] | – | – |
| -40.27 | 68.35 | -34.40 | 69.10 | CCN(CC)CCNC(=O)c1c(C)[nH]c(/C=C2\C(=O)Nc3ccc(F)cc32)c1C [Sunitinib] | – | – |
| -15.73 | 57.02 | -23.07 | 63.48 | CCS(=O)(=O)c1cccc(-c2cc(C(=O)NC3CCN(C)CC3)c(C)c3[nH]c4ncc(C)cc4c23)c1 [TAK-901] | – | – |
| 9.63 | 45.30 | 6.13 | 49.00 | C[C@@H]1CCN(C(=O)CC#N)C[C@@H]1N(C)c1ncnc2[nH]ccc12 [Tasocitinib_Tofacitinib] | – | – |
